Legend:
Assay type in all cases: toxicity, cell-based
U2OS = assay: Incucyte cell viability with U2OS; settings: human, 10 µM, compound concentration 10 uM
Fibroblast = assay: Incucyte cell viability with human fibroblast; settings: 10 µM, compound concentration 10 uM
HEK-293T = assay: Incucyte cell viability with HEK293T; settings: human, 10 µM, compound concentration 10 uM
[1] = 0 h, replicate number 2, timepoint 0 hours
[2] = 6 h, replicate number 1, timepoint 6 hours
[3] = 12 h, replicate number 1, timepoint 12 hours
[4] = 12 h, replicate number 2, timepoint 12 hours
[5] = 18 h, replicate number 1, timepoint 18 hours
[6] = 18 h, replicate number 2, timepoint 18 hours
[7] = 24 h, replicate number 1, timepoint 24 hours
[8] = 24 h, replicate number 2, timepoint 24 hours
[9] = 0 h, replicate number 1, timepoint 0 hours
[10] = 6 h, replicate number 2, timepoint 6 hours
Further: filed as whole numbers so only -1 and 0 and 1 occur.

Row | SMILES | Growth Rate (U2OS; [2]) | Growth Rate (U2OS; [3]) | Growth Rate (U2OS; [4]) | Growth Rate (U2OS; [5]) | Growth Rate (U2OS; [7]) | Growth Rate (Fibroblast; [9]) | Growth Rate (Fibroblast; [2]) | Growth Rate (Fibroblast; [3]) | Growth Rate (Fibroblast; [5]) | Growth Rate (Fibroblast; [7]) | Growth Rate (HEK-293T; [9]) | Growth Rate (HEK-293T; [2]) | Growth Rate (HEK-293T; [10]) | Growth Rate (HEK-293T; [3]) | Growth Rate (HEK-293T; [4]) | Growth Rate (HEK-293T; [5]) | Growth Rate (HEK-293T; [7]) | Growth Rate (HEK-293T; [1]) | Growth Rate (U2OS; [10]) | Growth Rate (HEK-293T; [8]) | other results
1 | COc1ccc(C2(O)OC(=O)C(c3ccc4c(c3)OCO4)=C2Cc2cc(OC)c(OC)c(OC)c2)cc1 (stereo not given) [PD-156707] | 1 | 0 | 1 | 0 | 0 | 1 | 0 | 0 | 0 | 0 | 0 | 1 | 0 | 1 | 0 | 0 | 0 | – | – | – | Growth Rate (U2OS; [1]): 1; Growth Rate (U2OS; [6]): 1; Growth Rate (U2OS; [8]): 1; Growth Rate (Fibroblast; [1]): 0; Growth Rate (Fibroblast; [6]): 1; Growth Rate (Fibroblast; [8]): 1
2 | C[C@@H]1CCN(C(=O)CC#N)C[C@@H]1N(C)c1ncnc2[nH]ccc12.O=C(O)CC(O)(CC(=O)O)C(=O)O [TOFACITINIB CITRATE] | 0 | 0 | – | 0 | 0 | 0 | – | 1 | 1 | 1 | 1 | 0 | – | 0 | 1 | 1 | 1 | 0 | – | – | Growth Rate (U2OS; [9]): 0
3 | CN([C@@H]1CCc2c(CC(=O)O)c3ccccc3n2C1)S(=O)(=O)c1ccc(F)cc1 [MK-7246] | – | 1 | – | 1 | 0 | 0 | 0 | 0 | 0 | 0 | 0 | 0 | 1 | 0 | – | 0 | 0 | – | 0 | 1 | Growth Rate (U2OS; [9]): 0; Growth Rate (U2OS; [8]): 1; Growth Rate (Fibroblast; [4]): 1; Growth Rate (Fibroblast; [6]): 1; Growth Rate (HEK-293T; [6]): 1
4 | O=C(NCCCN1CCOC1=O)c1cnc(NCc2cc(Br)ccc2Br)nc1NC1CCCC1 | 1 | 1 | – | 0 | 1 | – | 0 | 0 | 0 | 0 | 0 | 1 | – | – | 1 | 1 | 1 | – | – | 0 | Growth Rate (U2OS; [9]): 0
5 | Nc1nc(NCc2ccccc2)nc(-c2ccccc2CO)n1 [Ogerin] | – | 1 | – | 1 | 1 | 1 | 0 | 0 | 0 | 0 | 1 | 0 | 1 | 1 | – | 1 | 0 | 0 | 1 | 1 | Growth Rate (U2OS; [1]): 0
6 | C[C@@H](c1cccc(CN)c1)n1cc(Cl)cc(C(N)=O)c1=N.Cl | 1 | 1 | 0 | 1 | 1 | – | 1 | 1 | 1 | 1 | 0 | – | – | – | – | – | 1 | 1 | 0 | – | Growth Rate (U2OS; [1]): 1; Growth Rate (U2OS; [6]): 0; Growth Rate (U2OS; [8]): 0; Growth Rate (Fibroblast; [1]): 0; Growth Rate (Fibroblast; [10]): 0; Growth Rate (Fibroblast; [4]): 0; Growth Rate (Fibroblast; [6]): 0; Growth Rate (Fibroblast; [8]): 0
7 | Clc1cccc(-c2nnnn2Cc2cccnc2)c1Cl | 1 | 0 | 1 | 0 | 1 | 0 | 1 | 0 | 0 | 0 | 1 | 1 | 0 | 1 | – | 1 | 1 | 0 | 0 | 0 | Growth Rate (U2OS; [6]): 1; Growth Rate (Fibroblast; [10]): 0
8 | CS(=O)(=O)c1cccc(NC(=O)N(Cc2ccc(C(=O)Nc3nn[nH]n3)cc2)c2ccc(C3CCCCC3)cc2)c1 | – | – | 1 | 1 | 1 | 0 | 0 | 0 | 0 | 1 | 1 | 1 | 0 | 1 | 0 | 1 | 1 | 0 | 1 | 0 | Growth Rate (U2OS; [9]): 0; Growth Rate (HEK-293T; [6]): 0
